Data as given in publication PMC6270994, “The Hydractinia echinata Test-System. III: Structure-Toxicity Relationship Study of Some Azo-, Azo-Anilide, and Diazonium Salt Derivatives” (Molecules, 2014).
Structures can show the parent of a compound that is named as a salt. Where two headings read alike, the source gives them in different places.

System: Hydractinia echinata
Assay: Hydractinia echinata test system (HeTS): reduction of Cs+-induced metamorphosis of larvae
Assay type: in vivo
Conditions: for EC50: Hydractinia echinata; for F(1), F(2),... individual log(1/MRC50) toxicity value: in vivo
[1] = MRC50 in mol/L = concentration for 50% decrease of metamorphosis vs control, larvae exposed 3 h with Cs+, read after 24 h, read-out: M: experimental Mlog(1/MRC50) (converted)
[2] = MRC50 in mol/L = concentration for 50% decrease of metamorphosis vs control, larvae exposed 3 h with Cs+, read after 24 h

| Compound | EC50 [1] [µM] | M: experimental Mlog(1/MRC50) [2] | other results |
| --- | --- | --- | --- |
| Nc1c(N=Nc2ccc([N+](=O)[O-])cc2C(=O)O)c(S(=O)(=O)O)cc2cc(S(=O)(=O)O)c(N=Nc3ccc(NC(=O)c4ccc(N=Nc5ccc(O)c(C(=O)O)c5)cc4)cc3)c(O)c12 [Compound 114, 5-[2-(4-{[4-(2-{8-Amino-7-[2-(2-carboxy-4-nitrophenyl)diazen-1-yl]-1-hydroxy-3,6-disulfonaphthalen-2-yl}diazen-1-yl)phenyl]-carbamoyl}phenyl)-diazen-1-yl]-2-hydroxybenzoic acid] | 129 |  |  |
| C=C(O)c1cc([N+](=O)[O-])ccc1N=Nc1c(N)ccc2c(O)c(N=Nc3ccc(NC(=O)c4ccc(N=Nc5ccc(O)c(C(=O)O)c5)cc4)cc3)c(S(=O)(=O)O)cc12 [Compound 115, 5-{2-[4-({4-[2-(6-Amino-1-hydroxy-5-{2-[2-(1-hydroxy-ethenyl)-4-nitro-phenyl]diazen-1-yl}-3-sulfonaphthalen-2-yl)diazen-1-yl]phenyl}-carbamoyl)phenyl]-diazen-1-yl}-2-hydroxybenzoic acid] | 138 |  |  |
| Nc1ccc(N=Nc2ccc(NC(=O)c3ccc(N=Nc4c(S(=O)(=O)O)cc5cc(S(=O)(=O)O)c(N=Nc6ccccc6)c(O)c5c4N)cc3)cc2)c(N)c1 [Compound 116, 4-Amino-3-{2-[4-({4-[2-(2,4-diamino-phenyl)diazen-1-yl]phenyl}carbamoyl)-phenyl]diazen-1-yl}-5-hydroxy-6-(2-phenyl-diazen-1-yl)-naphthalene-2,7-disulfonic acid] | 166 |  |  |
| O=C(Nc1ccc(N=Nc2ccc(O)c(C(=O)Nc3ccccc3)c2)cc1)c1ccc(N=Nc2ccc(O)c(C(=O)Nc3ccccc3)c2)cc1 [Compound 117, 2-Hydroxy-5-{2-[4-(4-{2-[4-hydroxy-3-(phenylcarbamoyl)phenyl]diazen-1-yl}-benzamido)phenyl]-diazen-1-yl}-N-phenylbenzamide] | 166 |  | EC50 (parent dye, Table 2, read-out: F(1+2+...)e experimental toxicity log(1/MRC50) (converted)): 166 µM |
| O=C(Nc1ccc(N=Nc2c(S(=O)(=O)O)cc3cc(NC(=O)c4ccccc4)ccc3c2O)cc1)c1ccc(N=Nc2ccc(O)c(C(=O)Nc3ccccc3)c2)cc1 [Compound 118, 7-Benzamido-4-hydroxy-3-{2-[4-(4-{2-[4-hydroxy-3-(phenyl-carbamoyl)phenyl]diazen-1-yl}benzamido)-phenyl]diazen-1-yl}naphthalene-2-sulfonic acid] | 224 |  |  |
| O=C(Nc1ccc(N=Nc2c(S(=O)(=O)O)cc3cc(NC(=O)c4ccccc4)ccc3c2O)cc1)c1ccc(N=Nc2ccc(O)c(C(=O)O)c2)cc1 [Compound 119, 5-{2-[4-({4-[2-(6-Benzamido-1-hydroxy-3-sulfonaphthalen-2-yl)diazen-1-yl]-phenyl}carbamoyl)phenyl]diazen-1-yl}-2-hydroxybenzoic acid] | 22.4 |  |  |
| Nc1c(N=Nc2ccc(NC(=O)c3ccc(N=Nc4ccc(O)c(C(=O)Nc5ccccc5)c4)cc3)cc2)cc(S(=O)(=O)O)c2ccccc12 [Compound 120, 4-Amino-3-{2-[4-(4-{2-[4-hydroxy-3-(phenyl-carbamoyl)phenyl]diazen-1-yl}benzamido)phenyl]-diazen-1-yl}naphthalene-1-sulfonic acid] | 25.1 |  |  |
| Nc1ccc2cc(S(=O)(=O)O)c(N=Nc3ccc(NC(=O)c4ccc(N=Nc5ccc(O)c(C(=O)Nc6ccccc6)c5)cc4)cc3)c(O)c2c1 [Compound 121, 6-Amino-4-hydroxy-3-{2-[4-(4-{2-[4-hydroxy-3-(phenyl-carbamoyl)phenyl]diazen-1-yl}benzamido)-phenyl]diazen-1-yl}naphthalene-2-sulfonic acid] | 31.6 |  |  |
| Nc1cc(S(=O)(=O)O)cc2cc(S(=O)(=O)O)c(N=Nc3ccc(NC(=O)c4ccc(N=Nc5ccc(O)c(C(=O)Nc6ccccc6)c5)cc4)cc3)c(O)c12 [Compound 122, 5-Amino-4-hydroxy-3-{2-[4-(4-{2-[4-hydroxy-3-(phenyl-carbamoyl)phenyl]-diazen-1-yl}-benzamido)phenyl]-diazen-1-yl}-naphthalene-2,7-disulfonic acid] | 31.6 |  |  |
| O=C(Nc1ccc(N=Nc2c(O)c(S(=O)(=O)O)cc3cc(S(=O)(=O)O)ccc23)cc1)c1ccc(N=Nc2ccc(O)c(C(=O)Nc3ccccc3)c2)cc1 [Compound 127, 3-Hydroxy-4-{2-[4-(4-{2-[4-hydroxy-3-(phenylcarbamoyl)phenyl]diazen-1-yl}-benzamido)phenyl]-diazen-1-yl}-naphthalene-2,7-disulfonic acid] | 58.9 |  |  |
| O=C(Nc1ccc(N=Nc2c(O)ccc3ccccc23)cc1)c1ccc(N=Nc2ccc(O)c(C(=O)Nc3ccccc3)c2)cc1 [Compound 128, 2-Hydroxy-5-{2-[4-({4-[2-(2-hydroxynaphthalen-1-yl)diazen-1-yl]-phenyl}carbamoyl)-phenyl]diazen-1-yl}-N-phenylbenzamide] | 53.7 |  |  |
| O=C(Nc1ccc2c(O)c(N=Nc3ccccc3)c(S(=O)(=O)[O-])cc2c1)Nc1ccc2c(O)c(N=Nc3ccccc3)c(S(=O)(=O)[O-])cc2c1.[Na+].[Na+] [Compound 129, Direct Brilliant Orange] |  | 3.65 |  |
| O=C(Nc1ccc2c(O)c(N=Nc3ccc(N=Nc4ccc(S(=O)(=O)[O-])cc4)cc3S(=O)(=O)[O-])c(S(=O)(=O)[O-])cc2c1)Nc1ccc2c(O)c(N=Nc3ccc(N=Nc4ccc(S(=O)(=O)[O-])cc4)cc3S(=O)(=O)[O-])c(S(=O)(=O)[O-])cc2c1.[Na+].[Na+].[Na+].[Na+].[Na+].[Na+] [Compound 132, Direct Red 80 (Saturn Rot F3B)] |  | 3.80 |  |
| COc1cc(NC(=O)c2ccccc2)c(OC)cc1[N+]#N [Compound 135, Fast Blue RR Salt] |  | 4.09 |  |
| CCOc1cc(NC(=O)c2ccccc2)c(OCC)cc1[N+]#N.[Cl-] [Compound 136, Fast Blue BB Salt] |  | 4.17 |  |
| COc1ccc(N)cc1 [p-Methoxy-aniline] |  |  | F(1), F(2),... individual log(1/MRC50) toxicity value: 3.32 |
| Nc1ccc([N+](=O)[O-])cc1 [p-NA, p-nitroaniline] |  |  | F(1), F(2),... individual log(1/MRC50) toxicity value: 2.85 |
| Bordo Direct AN [Compound 81] |  | 3.86 |  |
| Direct Black 32 [Compound 77] |  | 3.89 |  |
| Fast Red B Salt [Compound 137] |  | 5.25 |  |
